Test results: patent US11648254B2 (Kumquat Biosciences Inc., priority 2021, dated 2023)
Read-outs that look alike come from different tables or passages of the source.

What was measured:
SOS1 = SOS1 (Homo sapiens (Human), UniProt Q07889); assay: Ras-SOS interaction assay (HTRF); format: biochemical
[1] = In vitro plasma protein binding (PPB); format: in vitro ADME; settings: percentage of free/unbound compound
[2] = system: MIA PaCa-2 cells (K-Ras G12C); assay: Ras-SOS cellular growth inhibition assay (CellTiter-Glo, 3D); format: cell-based; settings: Homo sapiens
Method in brief: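 MIA PaCa-2 cells grown in ultra-low-attachment plates (3D) in DMEM/Ham's F12 with 10% FCS and 2.5% horse serum, treated the day after seeding with a 9-point 3-fold compound series for about 5 days. Viability by CellTiter-Glo luminescence; IC50 from four-parameter fit.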

[3] = system: NCI-H1975 cells (EGFR T790M L858R); assay: EGFR-SOS cellular inhibition assay (CellTiter-Glo, 3D); format: cell-based; settings: Homo sapiens
[4] = K-RasG13D utilized, read-out: IC50 inhibition of SOS
[5] = K-RasG13D, read-out: IC50 value against SOS1
[6] = MIA PaCa-2, 120 h, MIA PaCa-2, 3D proliferation, about 5 days, read-out: Bio-Cell-Prolif-3D (MiaPaca2 IC50)
[7] = MIA PaCa-2, MIA PaCa-2, read-out: IC50 in inhibiting MIA PaCa-2 cell growth
[8] = 120 h, NCI-H1975, 3D proliferation, about 5 days, read-out: Bio-Cell-Prolif-3D (H1975 IC50)
[9] = NCI-H1975, EGFR T790M L858R, read-out: IC50 in inhibiting growth of NCI-H1975 cell line

Sequence of SOS1 (Q07889 564-1049): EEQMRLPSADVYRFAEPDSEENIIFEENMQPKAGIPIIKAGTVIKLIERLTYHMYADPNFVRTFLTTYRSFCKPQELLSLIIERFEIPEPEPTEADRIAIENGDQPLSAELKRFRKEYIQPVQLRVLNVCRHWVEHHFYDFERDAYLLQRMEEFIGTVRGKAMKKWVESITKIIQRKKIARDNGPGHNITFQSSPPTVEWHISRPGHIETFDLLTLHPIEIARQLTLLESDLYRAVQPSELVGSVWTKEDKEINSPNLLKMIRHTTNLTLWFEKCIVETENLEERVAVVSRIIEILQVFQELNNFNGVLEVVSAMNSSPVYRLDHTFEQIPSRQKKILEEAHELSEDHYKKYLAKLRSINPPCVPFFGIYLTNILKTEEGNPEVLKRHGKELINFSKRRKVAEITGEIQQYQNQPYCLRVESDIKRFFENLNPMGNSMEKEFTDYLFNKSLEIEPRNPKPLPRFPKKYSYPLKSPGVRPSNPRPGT

Compound	IC50 (SOS1; [4]) [nM]	IC50 (SOS1; [5]) [nM]	DMPK-invitro-PPB (Mouse Unbound) [%] [1] [%]	IC50 [2, 6] [nM]	IC50 [2, 7] [nM]	IC50 [3, 8] [nM]	IC50 [3, 9] [nM]
CCN1CCN(c2cc3c(N[C@H](C)c4cccc(C(F)F)c4F)nc(C)nc3nc2OCCOC)CC1 [Compound 314, (R)-N-(1-(3-(difluoromethyl)-2-fluorophenyl)ethyl)-6-(4-ethylpiperazin-1-yl)-7-(2-methoxyethoxy)-2-methylpyrido[2,3-d] pyrimidin-4-amine]	< 100	< 50	–	≤ 1000	< 500	≤ 1000	–
Cc1nc(N[C@H](C)c2cccc(C(F)(F)F)c2F)c2cc(C3CCS(=O)(=O)CC3)c(OC3CN(C)C3)nc2n1 [Compound 248, (R)-4-(4-((1-(2-fluoro-3-(trifluoromethyl)phenyl)ethyl)amino)-2-methyl-7-((1-methylazetidin-3-yl)oxy)pyrido[2,3-d]pyrimidin-6-yl)tetrahydro-2H-thiopyran 1,1-dioxide]	< 100	< 50	–	≤ 1000	< 500	≤ 1000	< 500
COc1nc2ncnc(N[C@H](C)c3cccc(C(F)(F)F)c3F)c2cc1N1CCN(C)CC1 [Compound 197, (R)-N-(1-(2-fluoro-3-(trifluoromethyl)phenyl)ethyl)-7-methoxy-6-(4-methylpiperazin-1-yl)pyrido[2,3-d] pyrimidin-4-amine]	< 100	< 50	–	≤ 1000	< 500	≤ 1000	< 500
Cc1nc(N[C@H](C)c2cccc(C(F)F)c2F)c2cc(C3(C#N)CC3)c(OCC3COC3)nc2n1 [Compound 299, (R)-1-(4-((1-(3-(difluoromethyl)-2-fluorophenyl)ethyl)anrino)-2-methyl-7-(oxetan-3-ylmethoxy)pyrido[2,3-d]pyrimidin-6-yl)cyclopropane-1-carbonitrile]	< 100	< 50	–	1000 to 10000	–	≤ 1000	–
COc1nc2nc(C)nc(N[C@H](C)c3cccc(C(F)(F)CO)c3F)c2cc1N1CCS(=O)(=O)CC1 [Compound 307, (R)-4-(4-((1-(3-(1,1-difluoro-2-hydroxyethyl)-2-fluorophenyl)ethyl)amino)-7-methoxy-2-methylpyrido[2,3-d]pyrimidin-6-yl)thiomorpholine 1,1-dioxide]	< 100	< 50	–	≤ 1000	< 500	≤ 1000	–
COc1nc2nc(C)nc(N[C@H](C)c3cccc(C(F)(F)CO)c3F)c2cc1C1(C#N)CC1 [Compound 206, (R)-1-(4-((1-(3-(1,1-difluoro-2-hydroxyethyl)-2-fluorophenyl)ethyl)amino)-7-methoxy-2-methylpyrido[2,3-d]pyrimidin-6-yl)cyclopropane-1-carbonitrile]	< 100	< 50	–	≤ 1000	< 500	≤ 1000	< 500
COc1nc2nc(C)nc(N[C@H](C)c3cccc(C(F)(F)F)c3C)c2cc1N1CCS(=O)(=O)CC1 [Compound 142, (R)-4-(7-methoxy-2-methyl-4-((1-(2-methyl-3-(trifluoromethyl)phenyl)ethyl)amino)pyrido[2,3-d]pyrimidin-6-yl)thiomorpholine 1,1-dioxide]	< 100	< 50	–	≤ 1000	< 500	≤ 1000	< 500
COc1nc2nc(C)nc(N[C@H](C)c3cccc(C(F)(F)C(C)(C)OC4CNC4)c3F)c2cc1N1CCN(C(C)C)CC1 [Compound 243, (R)-N-(1-(3-(2-(azetidin-3-yloxy)-1,1-difluoro-2-methylpropyl)-2-fluorophenyl)ethyl)-6-(4-isopropylpiperazin-1-yl)-7-methoxy-2-methylpyrido[2,3-d]pyrimidin-4-amine]	< 100	< 50	–	≤ 1000	< 500	≤ 1000	< 500
COc1nc2nc(C)nc(N[C@H](C)c3cccc(CC(F)F)c3F)c2cc1N1CCN(C)CC1 [Compound 149, (R)-N-(1-(3-(2,2-difluoroethyl)-2-fluorophenyl)ethyl)-7-methoxy-2-methyl-6-(4-methylpiperazin-1-yl)pyrido[2,3-d] pyrimidin-4-amine]	< 100	< 50	–	≤ 1000	< 500	≤ 1000	< 500

Other lines, results leading:

IC50 (SOS1; [4]) [nM]	IC50 (SOS1; [5]) [nM]	DMPK-invitro-PPB (Mouse Unbound) [%] [1] [%]	IC50 [2, 6] [nM]	IC50 [2, 7] [nM]	IC50 [3, 8] [nM]	IC50 [3, 9] [nM]	Compound
< 100	< 50	0.29	–	–	–	–	COc1nc2nc(C)nc(N[C@H](C)c3cccc(C(F)(F)F)c3F)c2cc1C1CCN(C2CCOCC2)CC1 [Compound 344, (R)-N-(1-(2-fluoro-3-(trifluoromethyl)phenyl)ethyl)-7-methoxy-2-methyl-6-(1-(tetrahydro-2H-pyran-4-yl)piperidin-4-yl)pyrido[2,3-d]pyrimidin-4-amine]
< 100	< 50	–	≤ 1000	–	≤ 1000	< 500	CC(C)N1CCN(c2cc3c(N[C@H](C)c4cccc(C(F)F)c4F)ncnc3nc2OC2CN(C)C2)CC1 [Compound 414, (R)-N-(1-(3-(difluoromethyl)-2-fluorophenyl)ethyl)-6-(4-isopropylpiperazin-1-yl)-7-((1-methylazetidin-3-yl)oxy)pyrido [2,3-d]pyrimidin-4-amine]
< 100	< 50	–	≤ 1000	< 500	≤ 1000	< 500	Cc1nc(N[C@H](C)c2cccc(C(F)F)c2F)c2cc(N3CCN(C)CC3)c(OCC3COC3)nc2n1 [Compound 397, (R)-N-(1-(3-(difluoromethyl)-2-fluorophenyl)ethyl)-2-methyl-6-(4-methylpiperazin-1-yl)-7-(oxetan-3-ylmethoxy)pyrido[2,3-d]pyrimidin-4-amine]
< 100	< 50	–	≤ 1000	< 500	≤ 1000	< 500	COc1nc2nc(C)nc(N[C@H](C)c3cccc(C(F)(F)C4CCN(C(C)C)CC4)c3)c2cc1N1CCN(C(C)C)CC1 [Compound 418, (R)—N-(1-(3-(difluoro(1-isopropylpiperidin-4-yl)methyl)phenyl)ethyl)-6-(4-isopropylpiperazin-1-yl)-7-methoxy-2-methylpyrido[2,3-d]pyrimidin-4-amine]
< 100	< 50	–	≤ 1000	–	≤ 1000	–	CCN1CCC(c2cc3c(N[C@H](C)c4cccc(C(F)F)c4F)nc(C)nc3nc2OC2CN(C)C2)CC1 [Compound 318]
< 100	< 50	–	≤ 1000	< 500	≤ 1000	< 500	Cc1c([C@@H](C)Nc2ncnc3nc(Cl)c(C4CCN(C(C)C)CC4)cc23)cccc1C(F)(F)F [Compound 385, (R)-7-chloro-6-(1-isopropylpiperidin-4-yl)-N-(1-(2-methyl-3-(trifluoromethyl)phenyl)ethyl)pyrido [2,3-d]pyrimidin-4-amine]
< 100	< 50	–	≤ 1000	< 500	≤ 1000	< 500	COc1nc2ncnc(N[C@H](C)c3cccc(C(F)(F)F)c3C)c2cc1N1CCN(C)CC1 [Compound 386, (R)-7-methoxy-N-(1-(2-methyl-3-(trifluoromethyl)phenyl)ethyl)-6-(4-methylpiperazin-1-yl)pyrido[2,3-d] pyrimidin-4-amine]
